Patent publication US8039458B2, “HIV integrase inhibitors” (priority 2005, dated 2011)

Experiments:
[1] = test system: recombinant NL-Rluc virus; experiment: Inhibition of HIV replication (NL-RLuc virus, Renilla luciferase); type: cell-based; settings: Human immunodeficiency virus 1, read-out: antiviral actitively
[2] = target: T1, HIV-Integrase (Human immunodeficiency virus type 1 group M subtype B, UniProt P12497); experiment: HIV-Integrase binding assay (competition with [3H]-compound I, SPA); settings: competitive binding vs [3H]-compound I to purified integrase; Ki by Cheng and Prusoff; read-out: in vitro binding
T1 construct: Recombinant integrase (0.26 ng) was incubated with the beads
Description: HIV-Integrase Inhibition Activity. To evaluate in-vitro activity against HIV-integrase, 5 pmole of biotin labeled substrate DNA was bound to 100 μg of Streptavidin coated PVT SPA beads (Amersham Pharmacia Biotech). Recombinant integrase (0.26 ng) was incubated with the beads for 90 min at 37° C. Unbound enzyme was removed by washing the complex followed by addition of inhibitors and 0.1 fmol of P33 labeled target DNA. The reaction was stopped by adding EDTA to a final concentration of 10 mM. Samples were counted in TopCountNXT (Packard) and the CPM was used as a measure of integration. The reaction condition was as described in A. Engelman and R. Craigie, J. Virol. 69, 5908-5911 (1995). The sequences of substrate and target DNA were described in Nucleic Acid Research 22,1121-1122 (1994).
HIV-Integrase binding assay. In this assay competitive binding experiments with test compounds and a radiolabeled integrase inhibitor (compound I) are performed against purified integrase. SPA bead/DNA/enzyme complexes were prepared as for the integrase inhibition assay except, to each well, 0.69 μl of integrase enzyme ([…]) was used per 2 μl of LTR DNA-attached scintillation proximity beads (stock 50 mg/ml). Binding reactions were carried out in 96-well white polystyrene assay plates (Corning, #3600). The following was added sequentially to each well: 20 μl of water or 20 μl of human serum (Cellgro Cat# 35-060-CL), 5 μl of serially diluted compound (in 50% DMSO/50% integrase SPA buffer), 5 μl of [^3H]-compound I (6,000 cpm/μl in SPA buffer) and 20 μl of bead/DNA/enzyme complex. The plates were shaken for 2 hours and then allowed to sit at room temperature without shaking overnight. The [^3H]-compound I binding was measured using a Topcount scintillation counter. Cheng and Prusoff equations were used to convert the inhibition of compound 1 binding into the corresponding Ki value. Activity equal to A refers to a compound having Ki=0.001 to 0.003 μM while B and C denote compounds having Ki=0.003 to 0.05 μM and Ki≧0.050 μM respectively.

CC1(C)COCCn2c1nc(C(=O)NCc1ccc(F)cc1N1CCCC1=O)c(O)c2=O [Example 16, N-((4-fluoro-2-(2-oxo-1-pyrrolidinyl)phenyl)methyl)-3-hydroxy-10,10-dimethyl-4-oxo-6,7,9,10-tetrahydro-4H-pyrimido[1,2-d][1,4]oxazepine-2-carboxamide]
EC50 [1]: 1 to 10 nM | Ki [2]: 1 to 3 nM

CS(=O)(=O)c1cc(F)ccc1CNC(=O)c1nc2n(c(=O)c1O)CCOCC21CCC1 [Example 8, N-((4-fluoro-2-(methylsulfonyl)phenyl)methyl)-3′-hydroxy-4′-oxo-6′,7′-dihydro-4′H-spiro[cyclobutane-1,10′-pyrimido[1,2-d][1,4]oxazepine]-2′-carboxamide]
EC50 [1]: 1 to 10 nM | Ki [2]: 1 to 3 nM

Cn1cnn(-c2cc(F)ccc2CNC(=O)c2nc3n(c(=O)c2O)CCOCC32CCOCC2)c1=O [Example 27, N-(4-Fluoro-2-(4-methyl-5-oxo-4,5-dihydro-1H-1,2,4-triazol-1-yl)benzyl)-3′-hydroxy-4′-oxo-2,3,4′,5,6,6′,7′,9′-octahydrospiro[pyran-4,10′-pyrimido[1,2-d][1,4]oxazepine]-2′-carboxamide]
EC50 [1]: 1 to 10 nM | Ki [2]: 3 to 50 nM

O=C(NCc1ccc(F)cc1)c1nc2n(c(=O)c1O)CCOCC21CCOCC1 [Example 32, N-((4-fluorophenyl)methyl)-3′-hydroxy-4′-oxo-2,3,5,6,6′,7′-hexahydro-4′H-spiro[pyran-4,10′-pyrimido[1,2-d][1,4]oxazepine]-2′-carboxamide]
EC50 [1]: 10 to 50 nM | Ki [2]: 3 to 50 nM

Cn1ncnc1-c1cc(F)ccc1CNC(=O)c1nc2n(c(=O)c1O)CCOCC21CCOCC1 [Example 40, N-((4-fluoro-2-(1-methyl-1H-1,2,4-triazol-5-yl)phenyl)methyl)-3′-hydroxy-4′-oxo-2,3,5,6,6′,7′-hexahydro-4′H-spiro[pyran-4,10′-pyrimido[1,2-d][1,4]oxazepine]-2′-carboxamide]
EC50 [1]: 1 to 10 nM | Ki [2]: 3 to 50 nM

O=C(NCc1ccc(F)cc1-n1cncn1)c1nc2n(c(=O)c1O)CCOCC21CCC1 [Example 9, N-((4-fluoro-2-(1H-1,2,4-triazol-1-yl)phenyl)methyl)-3′-hydroxy-4′-oxo-6′,7′-dihydro-4′H-spiro[cyclobutane-1,10′-pyrimido[1,2-d][1,4]oxazepine]-2′-carboxamide]
EC50 [1]: 1 to 10 nM | Ki [2]: 1 to 3 nM

CC1(C)COCCn2c1nc(C(=O)NCc1ccc(F)cc1-n1cncn1)c(O)c2=O [Example 2, N-((4-Fluoro-2-(1H-1,2,4-triazol-1-yl)phenyl)methyl)-3-hydroxy-10,10-dimethyl-4-oxo-6,7,9,10-tetrahydro-4H-pyrimido[1,2-d][1,4]oxazepine-2-carboxamide]
EC50 [1]: 1 to 10 nM | Ki [2]: 3 to 50 nM

Cc1nc(C)n(-c2cc(F)ccc2CNC(=O)c2nc3n(c(=O)c2O)CCOCC32CCCC2)n1 [Example 24, N-((2-(3,5-dimethyl-1H-1,2,4-triazol-1-yl)-4-fluorophenyl)methyl)-3′-hydroxy-4′-oxo-6′,7′-dihydro-4′H-spiro[cyclopentane-1,10′-pyrimido[1,2-d][1,4]oxazepine]-2′-carboxamide]
EC50 [1]: 1 to 10 nM | Ki [2]: 3 to 50 nM

Cc1nc(C)n(-c2cc(F)ccc2CNC(=O)c2nc3n(c(=O)c2O)CCOCC32CCC2)n1 [Example 11, N-((2-(3,5-dimethyl-1H-1,2,4-triazol-1-yl)-4-fluorophenyl)methyl)-3′-hydroxy-4′-oxo-6′,7′-dihydro-4′H-spiro[cyclobutane-1,10′-pyrimido[1,2-d][1,4]oxazepine]-2′-carboxamide]
EC50 [1]: 1 to 10 nM | Ki [2]: 3 to 50 nM

Cc1ncn(-c2cc(F)ccc2CNC(=O)c2nc3n(c(=O)c2O)CCOCC32CCOCC2)n1 [Example 35, N-((4-fluoro-2-(3-methyl-1H-1,2,4-triazol-1-yl)phenyl)methyl)-3′-hydroxy-4′-oxo-2,3,5,6,6′,7′-hexahydro-4′H-spiro[pyran-4,10′-pyrimido[1,2-d][1,4]oxazepine]-2′-carboxamide]
EC50 [1]: 1 to 10 nM | Ki [2]: 3 to 50 nM

Cc1nc(C)n(-c2cc(F)ccc2CNC(=O)c2nc3n(c(=O)c2O)CCOCC3(C)C)n1 [Example 5, N-((2-(3,5-dimethyl-1H-1,2,4-triazol-1-yl)-4-fluorophenyl)methyl)-3-hydroxy-10,10-dimethyl-4-oxo-6,7,9,10-tetrahydro-4H-pyrimido[1,2-d][1,4]oxazepine-2-carboxamide]
EC50 [1]: 10 to 50 nM | Ki [2]: 3 to 50 nM

CN1CCN(c2cc(F)ccc2CNC(=O)c2nc3n(c(=O)c2O)CCOCC32CCOCC2)C1=O [Example 38, N-((4-fluoro-2-(3-methyl-2-oxo-1-imidazolidinyl)phenyl)methyl)-3′-hydroxy-4′-oxo-2,3,5,6,6′,7′-hexahydro-4′H-spiro[pyran-4,10′-pyrimido[1,2-d][1,4]oxazepine]-2′-carboxamide]
EC50 [1]: 1 to 10 nM | Ki [2]: 3 to 50 nM

CC1(C)COCCn2c1nc(C(=O)NCc1ccc(F)cc1-n1ncnc1-c1ccccc1)c(O)c2=O [Example 20, N-((4-fluoro-2-(5-phenyl-1H-1,2,4-triazol-1-yl)phenyl)methyl)-3-hydroxy-10,10-dimethyl-4-oxo-6,7,9,10-tetrahydro-4H-pyrimido[1,2-d][1,4]oxazepine-2-carboxamide]
EC50 [1]: > 50 nM | Ki [2]: ≥ 50 nM

Cc1ncnn1-c1cc(F)ccc1CNC(=O)c1nc2n(c(=O)c1O)CCOCC2(C)C [Example 4, N-((4-Fluoro-2-(5-methyl-1H-1,2,4-triazol-1-yl)phenyl)methyl)-3-hydroxy-10,10-dimethyl-4-oxo-6,7,9,10-tetrahydro-4H-pyrimido[1,2-d][1,4]oxazepine-2-carboxamide]
EC50 [1]: 1 to 10 nM | Ki [2]: 3 to 50 nM

Cc1ncnn1-c1cc(F)ccc1CNC(=O)c1nc2n(c(=O)c1O)CCOCC21CCOCC1 [Example 36, N-((4-fluoro-2-(5-methyl-1H-1,2,4-triazol-1-yl)phenyl)methyl)-3′-hydroxy-4′-oxo-2,3,5,6,6′,7′-hexahydro-4′H-spiro[pyran-4,10′-pyrimido[1,2-d][1,4]oxazepine]-2′-carboxamide]
EC50 [1]: 1 to 10 nM | Ki [2]: 3 to 50 nM

CC1(C)COCCn2c1nc(C(=O)NCc1ccc(F)cc1S(C)(=O)=O)c(O)c2=O [Example 3, N-((4-Fluoro-2-(methylsulfonyl)phenyl)methyl)-3-hydroxy-10,10-dimethyl-4-oxo-6,7,9,10-tetrahydro-4H-pyrimido[1,2-d][1,4]oxazepine-2-carboxamide]
EC50 [1]: 1 to 10 nM | Ki [2]: 3 to 50 nM

CNC(=O)c1cc(F)ccc1CNC(=O)c1nc2n(c(=O)c1O)CCOCC21CCOCC1 [Example 33, N-((4-fluoro-2-((methylamino)carbonyl)phenyl)methyl)-3′-hydroxy-4′-oxo-2,3,5,6,6′,7′-hexahydro-4′H-spiro[pyran-4,10′-pyrimido[1,2-d][1,4]oxazepine]-2′-carboxamide]
EC50 [1]: 1 to 10 nM | Ki [2]: 3 to 50 nM

CCc1ncnn1-c1cc(F)ccc1CNC(=O)c1nc2n(c(=O)c1O)CCOCC21CCCC1 [Example 22, N-((2-(5-ethyl-1H-1,2,4-triazol-1-yl)-4-fluorophenyl)methyl)-3′-hydroxy-4′-oxo-6′,7′-dihydro-4′H-spiro[cyclopentane-1,10′-pyrimido[1,2-d][1,4]oxazepine]-2′-carboxamide]
EC50 [1]: 1 to 10 nM | Ki [2]: 3 to 50 nM

O=C(NCc1ccc(F)cc1-n1cncn1)c1nc2n(c(=O)c1O)CCOCC21CCOCC1 [Example 34, N-((4-fluoro-2-(1H-1,2,4-triazol-1-yl)phenyl)methyl)-3′-hydroxy-4′-oxo-2,3,5,6,6′,7′-hexahydro-4′H-spiro[pyran-4,10′-pyrimido[1,2-d][1,4]oxazepine]-2′-carboxamide]
EC50 [1]: 1 to 10 nM | Ki [2]: 1 to 3 nM

O=C(NCc1ccc(F)cc1-n1cnc(CO)n1)c1nc2n(c(=O)c1O)CCOCC21CCOCC1 [Example 25, N-((4-fluoro-2-(3-(hydroxymethyl)-1H-1,2,4-triazol-1-yl)phenyl)methyl)-3′-hydroxy-4′-oxo-2,3,5,6,6′,7′-hexahydro-4′H-spiro[pyran-4,10′-pyrimido[1,2-d][1,4]oxazepine]-2′-carboxamide]
EC50 [1]: > 50 nM | Ki [2]: 3 to 50 nM

Cc1nnn(-c2cc(F)ccc2CNC(=O)c2nc3n(c(=O)c2O)CCOCC3(C)C)c1C [Example 18, N-(2-(4,5-Dimethyl-1H-1,2,3-triazol-1-yl)-4-fluorobenzyl)-3-hydroxy-10,10-dimethyl-4-oxo-6,7,9,10-tetrahydro-4H-pyrimido[1,2-d][1,4]oxazepine-2-carboxamide]
EC50 [1]: 1 to 10 nM | Ki [2]: 3 to 50 nM
